Laboratory results reported in patent US8968700B2, “Imaging of protease activity in live cells using activity based probes” (The Board of Trustees of the Leland Stanford Junior …, priority 2005, dated 2015).
Blank lines part the entries; values can stand above or below the compound they belong to.

Experiments:
[1] = biological target: T1, human cathepsin L (Homo sapiens, UniProt P07711); assay: Kinetics of inhibition, progress curve method (kass); format: biochemical; conditions: human cathepsin L 1 nM; substrate Z-FR-AMC 10 μM; pseudo-first order
T1 sequence (P07711 114-333): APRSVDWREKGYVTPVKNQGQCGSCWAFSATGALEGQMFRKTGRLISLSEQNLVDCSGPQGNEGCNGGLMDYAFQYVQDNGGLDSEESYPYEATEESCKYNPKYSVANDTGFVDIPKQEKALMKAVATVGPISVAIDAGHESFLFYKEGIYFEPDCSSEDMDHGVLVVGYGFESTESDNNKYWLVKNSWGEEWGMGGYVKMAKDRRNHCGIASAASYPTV
Experimental: (§1) The kinetics of inhibition was determined by progress curve method under pseudo-first order conditions with at least 10-fold molar excess of inhibitor. Recorded progress curves were analyzed by non-linear regression according to the following equation (Ref 36).
(§2) [P]=vz(1−e^−k·t)/k where [P] is the product, vz is the velocity at time zero and k is the pseudo first order rate constant. Apparent rate constant (kapp) was determined from the slope of plot k versus [I]. Due to irreversible and competitive mechanism of inhibition, kapp was converted to the association constant (kass) using the equation below: kass=kapp(1+[S]/KM)
(§3) Activity of human cathepsin L was measured using the fluorogenic substrate Z-FRAMC37 (Bachem, USA) (Km=7.1 μM) and cathepsin B was assayed against the fluorogenic substrate Z-RR-AMC38 (Bachem, USA) (Km=114 μM). Concentration of substrates during the measurement was 10 μM. Cathepsins B and L (1 nM final concentrations) were incubated with inhibitor concentrations, ranging from 10 to 2000 nM, in the presence of 10 μM of appropriate substrate. Total volume during the measurement was 100 μl. Increase of fluorescence (370 nm excitation, […] emission) was continuously monitored for 30 minutes by Spectramax M5 spectrofluorimeter.
(§4) (Molecular Devices, USA) and inhibition curves were recorded. DMSO concentration during all measurements was 3.5%.

[2] = biological target: T2, bovine cathepsin B (Bos taurus, UniProt P07688); assay: as above; format: biochemical; conditions: bovine cathepsin B 1 nM; substrate Z-RR-AMC 10 μM; pseudo-first order
Experimental: as §1, §2, §3, §4

[3] = tested on: protease species in tumor lysates; assay: Biochemical analysis of in vivo labeled tumors, SDS-PAGE of lysates; design: species or system mouse; conditions: FIG. 6a
From the text: Tumors from mice described in Example 7 were lysed in a detergent buffer. Crude lysates were normalized for total protein, separated by SDS-PAGE, and visualized by scanning of the gel with a Typhoon flatbed laser scanner, fluorescent images of corresponding mice are shown below gel images, where spotted areas indicate fluorescent readings, as obtained in Example 7. […] Lysates from a C2C12/ras tumor locally injected with DMSO/PBS were immuno precipitated using anti cathepsin B or cathepsin L antibodies as indicated. Samples were separated by SDS-PAGE, and visualized by scanning of the gel with a Typhoon flatbed laser scanner, as shown in FIG. 6b. The antibodies precipitated cat B and cat L complexes, indicating specific labeling of these proteases.

[4] = tested on: MDA-MB 231 tumors; assay: In vivo imaging of cysteine protease activity in tumor-bearing mice (IVIS 200); design: species or system mouse; conditions: tail vein injection
Experimental: Three weeks prior to imaging, MDA-MB 435 or MDA-MB 231 cells (3×10^6 cell per site) were subcutaneously injected into the back left and right side of a Balb-c nude mouse. As is known in the literature, MDA-MB-435, expresses ALP56 (aspartic-like protease 56 kDa), which has homology to aspartic proteases, such as cathepsin D. Similarly, a trypsin-like protease secreted from MDA MB-231 cells can promote cell migration through autocrine activation of PAR-2. GB123 (1 μg) dissolved in DMSO/PBS was injected via the tail vein. Fluorescent images of living mice taken using an IVIS 200 imaging system equipped with a Cy5.5 filter at various time points after GB123 injection show localization of the probe to a tumor site. […] Labeling of active cysteine proteases in cell lines used to generate the tumors was carried out on SDS-PAGE. Intact monolayers of MDA MB-231 or MDA MB-435 cells were either pre-treated with the general papain family protease inhibitor JPM-OEt (50 μM) or with control DMSO (0.1%) for one hour and labeled by addition of GB123 (1 μM) to culture media for four hours. Crude detergent lysates were normalized for total protein, separated by SDS-PAGE, and visualized by scanning of the gel with a Typhoon flatbed laser scanner. […] Plotted values are expressed as percentage of fluorescence measured relative to the signal observed at two hours post injection of probe.

[5] = tested on: tumor tissues; assay: Ex vivo imaging of tumor tissue cryo-sections; format: in vivo, mouse; conditions: 24 hours after probe injection, Cy5 channel
Experimental: Tumors from mice injected with either GB123 or GB125 were extracted 24 hours after probe injection and molded in OCT placed in tert-butanol cooled with liquid nitrogen. Cryo-sections (10 μm) of tumors were mounted with Fluoromount and imaged using a Zeiss 200M fluorescent microscope using a 40× lens and a Cy5 filter.

[6] = tested on: MDA-MB 231 or C2C12/ras tumors; assay: In vivo labeling of live mice with active probe and control inactive probe; design: species or system mouse
Experimental: Two to four weeks prior to imaging MDA-MB 231 or C2C12/ras cells (a myoblast cell line wherein ras blocks differentiation) at 2×10^6 cell per spot were injected subcutaneous to the back of Balb-c nude mice.
Mice bearing tumors of similar size were injected intravenous via the tail vein with a DMSO/PBS solution of GB123 or GB125 (0.8-1.1 μg/gr mice). DMSO/PBS was locally injected directly into tumors in indicated mice, 15 minutes prior to probe injection. Fluorescent intensity as photons per second per centimeter square per steradian (p/s/cm^2/sr) was recorded from living mice, (data not shown). Images were taken at various time points (e.g., 1 min., 5 hrs. and 22 hrs.) after probe injection using an IVIS 200 imaging system equipped with a Cy5.5 filter.

[7] = tested on: MDA MB-231 or MDA MB-435 cells; assay: Labeling of active cysteine proteases in intact monolayers of tumor cell lines, SDS-PAGE; format: cell-based; conditions: 1 μM, four hours
Experimental: GB123 (1 μg) dissolved in DMSO/PBS was injected via the tail vein. Fluorescent images of living mice taken using an IVIS 200 imaging system equipped with a Cy5.5 filter at various time points after GB123 injection show localization of the probe to a tumor site. […] Labeling of active cysteine proteases in cell lines used to generate the tumors was carried out on SDS-PAGE. Intact monolayers of MDA MB-231 or MDA MB-435 cells were either pre-treated with the general papain family protease inhibitor JPM-OEt (50 μM) or with control DMSO (0.1%) for one hour and labeled by addition of GB123 (1 μM) to culture media for four hours. Crude detergent lysates were normalized for total protein, separated by SDS-PAGE, and visualized by scanning of the gel with a Typhoon flatbed laser scanner. […] All of these specific activities were sensitive to pre-treatment with the general inhibitor JPM-OEt. […] Plotted values are expressed as percentage of fluorescence measured relative to the signal observed at two hours post injection of probe.

[8] = tested on: NIH-3T3 cells; assay: Imaging protease activity in live cells, fluorescence microscopy; format: cell-based, mouse; conditions: JPM-OEt 50 μM, 1 hour
Experimental: In these experiments (data not shown), cultures of NIH-3T3 cells were either pre-treated with the general papain family protease inhibitor JPM-OEt (50 μM) or with control DMSO (0.1%) for 1 hour and labeled by addition of GB111 or GB117 (1 μM) to growth media for 4-5 hours. The acidotropic lysosomal marker LysoTracker (which produces a green color) was added and cells were imaged using an inverted fluorescent microscope (Nikon). Cells were also treated and analyzed after being washed for 3 hours in growth media containing JPM-OEt (50 μM) or DMSO (0.1%) prior to imaging. As a result, red fluorescence—indicating protease activity, green fluorescence—indicating lysosomal compartments, and yellow fluorescence resulting from overlap in green and red signals was observed.
NIH 3T3 cells (165,000 cells/well) were seeded on glass cover slips in six-well tissue culture plates containing growth medium 1 day before treatment. Cells were either pretreated with the general papain family protease inhibitor JPM-OEt (50 μM) or with control DMSO (0.1%) for 1 hour. Cells were labeled by addition of GB111 or GB117 (1 μM) to growth media at pH 7.4 for 4-5 hours. Cells were transferred to growth media without phenol red. LysoTracker (50 nM final concentration) was added minutes before cells were imaged using an inverted fluorescent microscope (Nikon Diaphot-300 microscope with the 60 (NA 1.4) objective). […]

[9] = biological target: T2, bovine cathepsin B; assay: Recombinant cathepsin labeling, SDS-PAGE fluorescent scan; format: biochemical; conditions: labeling by GB111 and GB117
Experimental: (§5) 0.7 μg recombinant human Cathepsin L (a generous gift from Dr. V. Turk Jozef, Stefan institute Slovenia) or 0.4 μg bovine Cathepsin B (Sigma) in reaction buffer (50 mM acetate, 2 mM DTT and 5 mM MgCl2, pH 5.5) were treated with 25 μM JPM-OEt for 30 min (indicated samples) at room temperature. Increasing concentrations of GB111, GB117, were added to appropriate samples for 30 min. The reaction was stopped by adding sample buffer X4 (40% glycerol, 0.2M Tris/HCl 6.8, 20% β-mercaptoethanol, 12% SDS and 0.4 mg/ml bromophenol blue). Half of the sample was separated on a 12% SDS gel and scanned by a Typhoon laser flatbed scanner at 532/580.

[10] = tested on: endogenous cathepsin activity; assay: In vivo whole animal imaging with spectral imager; design: species or system mouse; conditions: 100 mg/kg IP 2 hours prior to GB117
From the text: Photographs illustrating fluorescence imaging of endogenous cathepsin activity in live mice using the quenched activity-based probe GB117 were obtained with the CR1-Maestro™ Spectral imager, and comparisons were made between mice (a) with no probe, (b) with GB117 and (c) with GB117 plus the general cathepsin inhibitor JPM-OEt.
Areas of more intense labeling in the center of the animal (likely labeling of the liver, an organ with high cathepsin activity) were seen.
This work utilized a spectral imager (CRI Maestro) at the small animal imaging facility at Stanford. This new technology makes it possible to acquire the entire spectrum of light emission. Following spectral acquisition, the wavelengths specific to the injected probe can be defined, and autofluorescence subtracted. […] Techniques for spectral imaging in connection with multiple chromosome labels (“chromosome painting”) are known and may be adapted for use in vivo. See U.S. Pat. Nos. 5,936,731 and 6,690,817. A spectral imager is capable of collecting spatial (imaging) information as well as spectral information at every pixel in the image. This 3 dimensional data set enables the detailed study of both absorptive and fluorescent, histological and cellular material. […]

[11] = tested on: MCF-10A cells; assay: Imaging in three-dimensional cell culture on Cultrex, confocal microscopy; format: cell-based; conditions: JPM-OEt 50 μM
Experimental: In these experiments, reconstituted basement membrane, Cultrex (Trevigen) was mixed with 1 μM GB111 or GB117 with or without JPM-OEt (50 μM). MCF-10A cells were grown three-dimensional cultures on Cultrex containing probes with or without inhibitor for 3 days then imaged by confocal microscopy using a water immersion lens (Zeiss).
MCF-10A cells were grown in 3D culture on reconstituted basement membrane extracted from an EHS mouse sarcoma (Cultrex from Trevigen) as previously described 35. GB117 or GB111 was added to Cultrex (1 μM final concentration) upon cell seeding and day 3 structures were imaged as described below. Day 8 structures grown Cultrex without probes were treated with 1 μM GB111 for 3 hours in assay media (culture media with 2% horse serum and 5 ng/mL EGF). Cells were washed overnight in assay media, fixed and imaged as described below.

[12] = biological target: T1, human cathepsin L; assay: Recombinant cathepsin labeling, SDS-PAGE fluorescent scan; format: biochemical; design: gift from Dr. V. Turk, Jozef Stefan Institute, Slovenia; conditions: labeling by GB111 and GB117
Experimental: as §5

- kass (inhibition rate constant) [1]: 296400 ± 18100 M^−1s^1
- kass (inhibition rate constant) [2]: 38500 ± 7700 M^−1s^1
Compound: Cc1cccc(C)c1C(=O)OCC(=O)[C@H](CCCCN)NC(=O)[C@H](Cc1ccccc1)NC(=O)OCc1ccccc1 [GB111-NH2]

Compound: CCN1C(=CC=CC=CC2=[N+](CCCCCC(=O)NCCCC[C@H](NC(=O)[C@H](Cc3ccccc3)NC(=O)OCc3ccccc3)C(=O)COC(=O)c3c(C)cccc3C)c3ccc(S(=O)(=O)O)cc3C2(C)C)C(C)(C)c2cc(S(=O)(=O)O)ccc21 [GB123]
- fluorescence of labeled bands in tumor lysates [3]: significant fluorescence
- fluorescent signal in tumor [4]: accumulation of fluorescent signal was observed over time
- fluorescent signal in tumor cryo-sections [5]: accumulation of the specific fluorescent signal
- fluorescence after 1 min. ([6]; MDA-MB-231 injected mice): showed fluorescence
- retention of observable signal ([6]; intravenous via tail vein, 0.8-1.1 μg/gr): at least 22 hrs
- labeling of cysteine protease activities in cell lines [7]: increased labeling of a number of cysteine protease activities in MDA-MB 231 relative to the MDA-MB 435 cells

- effect of inhibitor pre-treatment on probe labeling [9]: specifically competed
- effect of inhibitor pre-treatment on probe labeling [12]: specifically competed
Compound: JPM-OEt
- effect of inhibitor pre-treatment on GB117 labeling pattern [8]: blocked
- effect of inhibitor pre-treatment on GB117 signal in live mouse [10]: significantly reduced fluorescent signal in the entire animal
- effect of inhibitor on GB117 staining in 3D culture [11]: completely blocked
